Data: ChEMBL document CHEMBL1135689, “Anthranilic acid amides: a novel class of antiangiogenic VEGF receptor kinase inhibitors” (J Med Chem, 2002)
Values joined by “and” are separate entries in the source; they are usually repeats but may differ in a detail not shown here. Equal entries are not always repeated.

Key:
[1] = biological target: Fibroblast growth factor receptor 1 (Mus musculus) (UniProt P16092); assay: Mean % inhibition of induced angiogenesis by Heparin-binding growth factor 2 after intraperitoneal dose of 100 mg/kg in mice; format: functional, organism-based; design: dose 100 mg/kg
[2] = biological target: Cyclin-dependent kinase 1 (Homo sapiens, UniProt P06493); assay: In vitro inhibition of Cyclin-dependent kinase 1 (CDK-1) expressed in baculovirus
[3] = Mean % inhibition of induced angiogenesis by Vascular endothelial growth factor (VEGF) after intraperitoneal dose of 100 mg/kg in mice; format: functional; details: Mus musculus, ip
Angiopoietin-1 receptor = Angiopoietin-1 receptor (Homo sapiens, UniProt Q02763); assay: In vitro inhibition of Tyrosine protein kinase receptor TIE-2 (Tek) expressed in baculovirus
[4] = biological target: Vascular endothelial growth factor receptor 3 (Homo sapiens, UniProt P35916); assay: In vitro inhibition of Vascular endothelial growth factor receptor 3 [VEGFR-3(Flt-4)] expressed in baculovirus
[5] = biological target: Insulin-like growth factor 1 receptor (Homo sapiens, UniProt P08069); assay: In vitro inhibition of Insulin-like growth factor I receptor expressed in baculovirus
[6] = Mean % inhibition of induced angiogenesis by Vascular endothelial growth factor (VEGF) at a peroral dose of 50 mg/kg in mice; format: functional; details: Mus musculus, route oral
B16 [7] = assay: Mean % inhibition of lymph node metastasis in B16 mouse administration.; format: functional
B16 [8] = assay: Mean % inhibition of primary tumor growth in B16 mouse administration; format: functional
B16 [9] = assay: Mean % inhibition of lymph node metastasis in B16 mouse administration; format: functional
[10] = biological target: Macrophage colony-stimulating factor 1 receptor (Homo sapiens, UniProt P07333)
[11] = biological target: Tyrosine-protein kinase ABL1 (Homo sapiens, UniProt P00519)
Mus musculus [12] = species on record: Mus musculus
[13] = biological target: Proto-oncogene tyrosine-protein kinase Src (Homo sapiens, UniProt P12931)
[14] = biological target: Fibroblast growth factor receptor 1 (Homo sapiens, UniProt P11362)
Mus musculus [15] = species on record: Mus musculus; remark: listed apart in the source
[16] = biological target: Hepatocyte growth factor receptor (Homo sapiens, UniProt P08581); assay: In vitro inhibition of Met proto-oncogene tyrosine kinase (c-Met) expressed in baculovirus
[17] = biological target: T1, Vascular endothelial growth factor receptor 2 (Homo sapiens, UniProt P35968)
[18] = biological target: Mast/stem cell growth factor receptor Kit (Homo sapiens, UniProt P10721)
[19] = biological target: Vascular endothelial growth factor receptor 1 (Homo sapiens, UniProt P17948)
Mus musculus [20] = species on record: Mus musculus; remark: listed apart in the source
Mus musculus [21] = species on record: Mus musculus; remark: listed apart in the source
[22] = biological target: Platelet-derived growth factor receptor beta (Homo sapiens, UniProt P09619)
[23] = biological target: T1, Vascular endothelial growth factor receptor 2; remark: listed apart in the source

Insulin-like growth factor 1 receptor, sequence (P08069 31-736 limits assumed): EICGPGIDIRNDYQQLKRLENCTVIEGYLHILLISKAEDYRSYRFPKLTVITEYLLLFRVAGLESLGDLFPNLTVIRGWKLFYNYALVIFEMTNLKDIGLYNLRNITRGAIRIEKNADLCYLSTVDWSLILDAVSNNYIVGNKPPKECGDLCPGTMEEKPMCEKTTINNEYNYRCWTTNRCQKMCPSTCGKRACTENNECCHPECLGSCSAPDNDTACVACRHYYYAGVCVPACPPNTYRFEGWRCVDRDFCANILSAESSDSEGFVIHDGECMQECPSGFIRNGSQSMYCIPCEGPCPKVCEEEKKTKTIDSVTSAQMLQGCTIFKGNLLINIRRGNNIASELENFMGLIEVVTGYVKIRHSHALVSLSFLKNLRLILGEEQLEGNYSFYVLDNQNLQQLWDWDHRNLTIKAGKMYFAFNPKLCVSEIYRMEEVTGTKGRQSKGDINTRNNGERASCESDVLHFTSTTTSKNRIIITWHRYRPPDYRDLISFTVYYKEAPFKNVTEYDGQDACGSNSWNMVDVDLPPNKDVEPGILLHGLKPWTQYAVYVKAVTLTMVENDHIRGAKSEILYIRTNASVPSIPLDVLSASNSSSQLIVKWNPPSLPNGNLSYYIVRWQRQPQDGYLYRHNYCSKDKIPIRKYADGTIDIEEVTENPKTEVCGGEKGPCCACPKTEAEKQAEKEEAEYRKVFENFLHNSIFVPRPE
Insulin-like growth factor 1 receptor, sequence (P08069 741-1367 limits assumed): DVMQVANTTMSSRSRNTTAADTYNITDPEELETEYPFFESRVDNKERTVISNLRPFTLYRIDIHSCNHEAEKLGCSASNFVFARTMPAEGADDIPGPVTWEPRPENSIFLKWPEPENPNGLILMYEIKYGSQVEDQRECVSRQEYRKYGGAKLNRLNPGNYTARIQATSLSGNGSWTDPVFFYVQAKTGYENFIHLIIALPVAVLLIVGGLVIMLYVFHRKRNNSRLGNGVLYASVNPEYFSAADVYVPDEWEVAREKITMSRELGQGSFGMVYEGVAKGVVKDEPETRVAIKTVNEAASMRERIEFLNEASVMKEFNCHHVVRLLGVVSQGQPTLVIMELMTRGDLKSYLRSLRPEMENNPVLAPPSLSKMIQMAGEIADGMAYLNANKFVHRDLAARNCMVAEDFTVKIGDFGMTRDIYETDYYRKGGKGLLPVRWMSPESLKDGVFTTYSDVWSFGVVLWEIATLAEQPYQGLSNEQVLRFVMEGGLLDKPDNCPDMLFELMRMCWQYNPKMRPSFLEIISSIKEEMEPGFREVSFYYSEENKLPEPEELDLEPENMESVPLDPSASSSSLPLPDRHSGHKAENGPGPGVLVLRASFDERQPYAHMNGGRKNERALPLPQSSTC
Angiopoietin-1 receptor, sequence (Q02763 whole entry): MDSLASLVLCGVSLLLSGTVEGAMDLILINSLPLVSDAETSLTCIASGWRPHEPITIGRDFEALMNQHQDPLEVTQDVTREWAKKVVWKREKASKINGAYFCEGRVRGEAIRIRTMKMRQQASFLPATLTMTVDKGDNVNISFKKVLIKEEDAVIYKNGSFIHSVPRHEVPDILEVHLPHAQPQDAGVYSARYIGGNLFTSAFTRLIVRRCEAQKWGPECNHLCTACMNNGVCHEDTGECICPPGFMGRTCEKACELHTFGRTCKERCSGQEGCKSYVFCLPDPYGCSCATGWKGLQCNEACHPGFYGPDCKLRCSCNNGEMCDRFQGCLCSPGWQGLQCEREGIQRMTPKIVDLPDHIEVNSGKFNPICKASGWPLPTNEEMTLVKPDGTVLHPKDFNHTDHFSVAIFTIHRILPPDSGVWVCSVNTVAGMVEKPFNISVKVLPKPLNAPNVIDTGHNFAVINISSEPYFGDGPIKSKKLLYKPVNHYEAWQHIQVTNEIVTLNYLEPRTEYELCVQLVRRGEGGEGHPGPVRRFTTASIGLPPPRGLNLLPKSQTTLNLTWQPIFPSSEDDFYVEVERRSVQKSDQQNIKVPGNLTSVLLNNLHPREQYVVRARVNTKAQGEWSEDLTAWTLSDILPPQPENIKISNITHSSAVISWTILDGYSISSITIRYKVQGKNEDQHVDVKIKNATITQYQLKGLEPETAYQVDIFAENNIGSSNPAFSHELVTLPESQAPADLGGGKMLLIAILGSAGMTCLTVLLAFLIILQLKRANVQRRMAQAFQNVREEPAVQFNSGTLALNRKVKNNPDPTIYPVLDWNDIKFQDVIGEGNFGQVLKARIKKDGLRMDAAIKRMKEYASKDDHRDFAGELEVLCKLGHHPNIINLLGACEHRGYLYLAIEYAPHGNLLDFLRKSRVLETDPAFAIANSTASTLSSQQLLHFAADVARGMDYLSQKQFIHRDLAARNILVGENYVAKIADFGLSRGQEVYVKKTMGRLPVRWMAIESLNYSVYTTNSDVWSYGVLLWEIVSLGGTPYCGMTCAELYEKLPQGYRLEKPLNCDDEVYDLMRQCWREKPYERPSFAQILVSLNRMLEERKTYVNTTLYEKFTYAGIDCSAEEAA
Cyclin-dependent kinase 1, sequence (P06493 whole entry): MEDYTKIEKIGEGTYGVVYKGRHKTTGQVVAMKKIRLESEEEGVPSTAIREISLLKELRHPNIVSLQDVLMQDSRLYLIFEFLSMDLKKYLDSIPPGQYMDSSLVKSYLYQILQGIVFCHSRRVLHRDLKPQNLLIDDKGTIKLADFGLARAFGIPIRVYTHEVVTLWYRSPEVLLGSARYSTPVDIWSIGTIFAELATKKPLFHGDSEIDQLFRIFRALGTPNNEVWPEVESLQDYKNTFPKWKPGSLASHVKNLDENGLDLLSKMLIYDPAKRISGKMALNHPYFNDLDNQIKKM
Mast/stem cell growth factor receptor Kit, sequence (P10721 whole entry): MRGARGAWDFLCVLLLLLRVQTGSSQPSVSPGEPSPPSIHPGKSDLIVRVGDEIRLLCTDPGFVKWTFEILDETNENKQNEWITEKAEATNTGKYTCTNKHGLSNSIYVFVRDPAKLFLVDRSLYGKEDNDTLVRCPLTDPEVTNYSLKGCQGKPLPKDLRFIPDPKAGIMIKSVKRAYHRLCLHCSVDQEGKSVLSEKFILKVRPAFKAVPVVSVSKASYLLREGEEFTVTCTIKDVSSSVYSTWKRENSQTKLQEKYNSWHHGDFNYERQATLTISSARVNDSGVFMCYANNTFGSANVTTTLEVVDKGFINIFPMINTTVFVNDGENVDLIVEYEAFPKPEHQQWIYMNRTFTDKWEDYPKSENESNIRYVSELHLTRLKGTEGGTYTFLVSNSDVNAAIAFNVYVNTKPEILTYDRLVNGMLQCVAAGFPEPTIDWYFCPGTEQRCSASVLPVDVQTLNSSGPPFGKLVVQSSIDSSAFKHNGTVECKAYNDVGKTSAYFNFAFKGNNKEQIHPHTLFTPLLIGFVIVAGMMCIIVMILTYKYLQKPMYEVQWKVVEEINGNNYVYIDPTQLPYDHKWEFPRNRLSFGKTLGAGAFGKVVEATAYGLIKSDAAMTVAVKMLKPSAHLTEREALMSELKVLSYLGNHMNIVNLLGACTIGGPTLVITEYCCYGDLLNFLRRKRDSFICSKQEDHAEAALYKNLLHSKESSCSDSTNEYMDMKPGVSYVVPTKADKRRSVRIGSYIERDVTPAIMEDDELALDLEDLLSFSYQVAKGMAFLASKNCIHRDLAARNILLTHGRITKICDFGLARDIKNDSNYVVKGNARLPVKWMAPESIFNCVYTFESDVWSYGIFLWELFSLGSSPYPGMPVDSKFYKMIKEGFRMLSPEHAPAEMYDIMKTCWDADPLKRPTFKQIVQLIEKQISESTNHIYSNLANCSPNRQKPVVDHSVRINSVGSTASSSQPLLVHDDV
Macrophage colony-stimulating factor 1 receptor, sequence (P07333 whole entry): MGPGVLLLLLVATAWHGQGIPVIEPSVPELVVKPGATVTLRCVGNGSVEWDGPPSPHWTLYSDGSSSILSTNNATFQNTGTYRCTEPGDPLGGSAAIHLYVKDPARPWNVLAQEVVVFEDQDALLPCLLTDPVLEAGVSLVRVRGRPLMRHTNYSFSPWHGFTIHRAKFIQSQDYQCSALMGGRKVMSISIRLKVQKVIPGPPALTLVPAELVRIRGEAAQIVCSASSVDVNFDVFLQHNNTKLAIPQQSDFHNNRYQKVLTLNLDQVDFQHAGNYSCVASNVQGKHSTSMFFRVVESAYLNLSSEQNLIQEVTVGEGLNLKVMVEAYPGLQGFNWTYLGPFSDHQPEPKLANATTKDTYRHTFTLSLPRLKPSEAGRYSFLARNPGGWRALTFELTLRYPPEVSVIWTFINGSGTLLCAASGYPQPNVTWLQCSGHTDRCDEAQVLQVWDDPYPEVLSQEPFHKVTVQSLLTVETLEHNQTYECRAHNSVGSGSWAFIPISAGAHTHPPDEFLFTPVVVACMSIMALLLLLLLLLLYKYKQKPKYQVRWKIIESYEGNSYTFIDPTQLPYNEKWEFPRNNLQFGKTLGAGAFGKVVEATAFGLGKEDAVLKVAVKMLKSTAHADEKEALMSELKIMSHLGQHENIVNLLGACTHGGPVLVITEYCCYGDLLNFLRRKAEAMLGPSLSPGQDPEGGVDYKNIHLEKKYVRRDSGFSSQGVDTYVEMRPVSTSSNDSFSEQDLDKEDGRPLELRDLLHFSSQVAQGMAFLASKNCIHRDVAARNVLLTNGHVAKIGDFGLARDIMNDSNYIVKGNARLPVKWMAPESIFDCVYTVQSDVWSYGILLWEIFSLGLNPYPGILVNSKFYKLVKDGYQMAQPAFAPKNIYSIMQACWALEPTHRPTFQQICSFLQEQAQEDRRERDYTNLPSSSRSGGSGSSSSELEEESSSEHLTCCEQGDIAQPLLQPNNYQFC

Structure (SMILES) | IC50 [2] [nM] | IC50 (Angiopoietin-1 receptor) [nM] | IC50 [4] [nM] | IC50 [5] [nM] | inhibition in vivo at 50 mg/kg [6] [%] | Inhibition (B16 [8]) | Inhibition (B16 [9]) [%] | IC50 [10] [nM] | IC50 [11] [nM] | IC50 [13] [nM] | IC50 [14] [nM] | IC50 [16] [nM] | IC50 [18] [nM] | also measured
Cc1cc(C)c(/C=C2\C(=O)Nc3ccccc32)[nH]1 [SEMAXANIB] | > 10000 | > 10000 | 50 | > 10000 | – | – | – | – | – | – | – | – | – | inhibition [1]: 87%; inhibition in vivo at 100 mg/kg [3]: 65%
COc1cc2/c(=N/c3ccc(Br)cc3F)nc[nH]c2cc1OCC1CCN(C)CC1 [VANDETANIB] | – | – | – | – | 71 | 60% | – | – | – | – | – | – | – | Inhibition (B16 [7]): 61%
Clc1ccc(Nc2nnc(Cc3ccncc3)c3ccccc23)cc1.O=C(O)CCC(=O)O | – | – | – | – | 68 | 34% | 55 | – | – | – | – | – | – | –
O=C(Nc1cccc(-c2cncc3ccccc23)c1)c1ccccc1NCc1ccncc1 | > 10000 | 6800 | 52 | 6400 | 100 | 39% and 73% | – | 99 | 5330 | > 10000 | 5100 | > 10000 | 105 | Plasma concentration (Mus musculus [12]): 1.9 µM l-1; Plasma concentration (Mus musculus [15]): 3.4 µM l-1; IC50 [17]: 1.16 nM; IC50 [19]: 130 nM; Plasma concentration (Mus musculus [20]): 1.6 µM l-1; Plasma concentration (Mus musculus [21]): 1.9 µM l-1; IC50 [22]: 357 nM; IC50 [23]: 9 nM
O=C(Nc1cccc(C(F)(F)F)c1)c1ccccc1NCc1ccncc1 | > 10000 | > 10000 | – | > 10000 | 84 | 44% | 85 | 380 | 2820 | > 10000 | > 10000 | > 10000 | 236 | –
